Data on 8 compounds can be found in US20050267092A1, “Novel cephalosporin compounds and process for preparing the same” (priority 2002, published 2005).

Converted amounts (≈) assume the structure as drawn. Where two headings read alike, the source gives them in different places.

Holding throughout (assay): Minimum Inhibitory Concentration (MIC), agar dilution, standard strains
Format in all cases: cell-based
In general terms: Agar dilution tests growth on a series of plates holding different concentrations.

The subject of one assay is E. faecalis 2168. To be noted: for MIC: read-out: Minimum Inhibitory Concentration (MIC), E. faecalis 2168. On the procedure: (§1) Minimum Inhibitory Concentration (MIC)
(§2) The effectiveness of the compound according to the present invention was determined by obtaining Minumum Inhibitory Concentration (MIC) of the compounds prepared by the above examples (Compounds I-1˜I-6, I-10) and Vancomycin, which is the known compound having a potent activity against gram-positive strains, as the control drug against the standard strains. Specifically, Minimum Inhibitory Concentration was obtained by diluting the test compounds according to a double dilution method, dispersing them in Mueller-Hinton agar medium, inoculating each of the test strains having 10^7 cfu (colony forming unit) per ml in an amount of 2 μl to the medium and then incubating them at 37° C. for 20 hours. From the results of Minimum Inhibitory Concentration test, it can be seen that the compound according to the present invention has a good activity against major pathogenic microorganisms, which cause hospital infection, including MRSA strains.

Another assay relates to S. aureus 77. Particulars: for MIC: read-out: Minimum Inhibitory Concentration (MIC), S. aureus 77. As to the method: as §1, §2
In another assay the test system is S. aureus K311. To be noted: for MIC: Staphylococcus aureus, read-out: Minimum Inhibitory Concentration (MIC), S. aureus K311. As to the method: as §1, §2
In the next assay the test system is S. aureus giorgio. Particulars: for MIC: Staphylococcus aureus, read-out: Minimum Inhibitory Concentration (MIC), S. aureus giorgio. As to the method:
as §1, §2

The next assay relates to S. epidermidis Q033. To be noted: for MIC: Staphylococcus epidermidis, read-out: Minimum Inhibitory Concentration (MIC), S. epidermidis Q033. As to the method:
as §1, §2

The mark [1] stands for this setting: Enterococcus faecalis, 2168, Mueller-Hinton agar, double dilution, 37° C. for 20 hours.
Where [2] appears, read: Staphylococcus aureus, 77, Mueller-Hinton agar, double dilution, 37° C. for 20 hours.
Setting [3] is: K311, Mueller-Hinton agar, double dilution, 37° C. for 20 hours.
[4] abbreviates: Mueller-Hinton agar, double dilution, 37° C. for 20 hours.
Where [5] appears, read: Q033, Mueller-Hinton agar, double dilution, 37° C. for 20 hours.

With `Nc1nc(C(=NO)C(=O)N[C@@H]2C(=O)N3C(C(=O)O)=C(/C=C/Sc4nc(N)c5cn[nH]c5n4)CS[C@H]23)c(Cl)s1` [Compound I-6, (6R,7R)-7-{[2-(2-amino-5-chloro-1,3-thiazol-4-yl)-2-(hydroxyimino)acetyl]amino}-3-{(E)-2-[(4-amino-1H-pyrazolo[3,4-d]pyrimidin-6-yl)sulfanyl]ethenyl}-8-oxo-5-thia-1-azabicyclo[4.2.0]oct-2-ene-2-carboxylic acid], the MIC in the assay with E. faecalis 2168 (setting [1]) was 0.5 µg/mL (≈ 0.84 µM); in the assay with S. aureus 77 (setting [2]), 0.5 µg/mL (≈ 0.84 µM); in the assay with S. aureus K311 (setting [3]), 0.5 µg/mL (≈ 0.84 µM); in the assay on S. aureus giorgio (setting [4]) it was 0.13 µg/mL (≈ 0.218 µM); with S. epidermidis Q033 (setting [5]) it was 0.031 µg/mL (≈ 0.0521 µM).

As to `Cc1cc(S/C=C/C2=C(C(=O)O)N3C(=O)[C@@H](NC(=O)C(=NO)c4nc(N)sc4Cl)[C@H]3SC2)nc(SCCN)n1` [Compound I-5], the “Minimum Inhibitory Concentration (MIC), E. faecalis 2168” value in the assay with E. faecalis 2168 (setting [4]) was determined as 0.25 µg/mL. For the same compound, the “Minimum Inhibitory Concentration (MIC), S. aureus 77” value in the assay on S. aureus 77 (setting [4]) was 1 µg/mL. For the same compound, the “Minimum Inhibitory Concentration (MIC), S. aureus K311” value in the assay with S. aureus K311 (setting [4]) is 2 µg/mL. Besides, the “Minimum Inhibitory Concentration (MIC), S. aureus giorgio” value with S. aureus giorgio (setting [4]) turned out to be 0.25 µg/mL. Further, the “Minimum Inhibitory Concentration (MIC), S. epidermidis Q033” value in the assay on S. epidermidis Q033 (setting [4]) worked out at 0.13 µg/mL.

`Nc1cc(S/C=C/C2=C(C(=O)O)N3C(=O)[C@@H](NC(=O)C(=NOC4CCCC4)c4nc(N)sc4Cl)[C@H]3SC2)nc(N)n1` [Compound I-10, (6R,7R)-7-({2-(2-amino-5-chloro-1,3-thiazol-4-yl)-2-[(cyclopentyloxy)imino]acetyl}amino)-3-{(E)-2-[(2,6-diamino-4-pyrimidinyl)sulfanyl]ethenyl}-8-oxo-5-thia-1-azabicyclo[4.2.0]oct-2-ene-2-carboxylic acid]: the MIC with E. faecalis 2168 (setting [1]) amounted to 4 µg/mL (≈ 6.27 µM); in the assay with S. aureus 77 (setting [2]), 2 µg/mL (≈ 3.13 µM); in the assay on S. aureus K311 (setting [3]), 2 µg/mL (≈ 3.13 µM); with S. aureus giorgio (setting [4]), 0.5 µg/mL (≈ 0.784 µM); in the assay with S. epidermidis Q033 (setting [5]), 0.063 µg/mL (≈ 0.0987 µM).

In the case of `Nc1cc(S/C=C/C2=C(C(=O)O)N3C(=O)[C@@H](NC(=O)C(=NO)c4nc(N)sc4Cl)[C@H]3SC2)nc(N)n1` [Compound I-2, (6R,7R)-7-{[2-(2-amino-5-chloro-1,3-thiazol-4-yl)-2-(hydroxyimino)acetyl]amino}-3-{(E)-2-[(2,6-diamino-4-pyrimidinyl)sulfanyl]ethenyl}-8-oxo-5-thia-1-azabicyclo[4.2.0]oct-2-ene-2-carboxylic acid], the MIC in the assay with E. faecalis 2168 (setting [1]) came to 1 µg/mL (≈ 1.75 µM); in the assay on S. aureus 77 (setting [2]), 1 µg/mL (≈ 1.75 µM); in the assay with S. aureus K311 (setting [3]) it was 1 µg/mL (≈ 1.75 µM); in the assay with S. aureus giorgio (setting [4]), 0.13 µg/mL (≈ 0.228 µM); with S. epidermidis Q033 (setting [5]), 0.063 µg/mL (≈ 0.111 µM).

`Nc1nc(O)cc(S/C=C/C2=C(C(=O)O)N3C(=O)[C@@H](NC(=O)C(=NO)c4nc(N)sc4Cl)[C@H]3SC2)n1` [Compound I-3, (6R,7R)-7-{[2-(2-amino-5-chloro-1,3-thiazol-4-yl)-2-(hydroxyimino)acetyl]amino}-3-{(E)-2-[(2-amino-6-hydroxy-4-pyrimidinyl)sulfanyl]ethenyl}-8-oxo-5-thia-1-azabicyclo[4.2.0]oct-2-ene-2-carboxylic acid]: the MIC in the assay on E. faecalis 2168 (setting [1]) was determined as 0.5 µg/mL (≈ 0.876 µM); in the assay with S. aureus 77 (setting [2]) it was 0.5 µg/mL (≈ 0.876 µM); in the assay on S. aureus K311 (setting [3]), 0.5 µg/mL (≈ 0.876 µM); in the assay with S. aureus giorgio (setting [4]), 0.13 µg/mL (≈ 0.228 µM); in the assay on S. epidermidis Q033 (setting [5]), 0.063 µg/mL (≈ 0.11 µM).

As to `Nc1cc(S/C=C/C2=C(C(=O)O)N3C(=O)[C@@H](NC(=O)C(=NO)c4nc(N)sc4Cl)[C@H]3SC2)nc(O)n1` [Compound I-1, (6R,7R)-7-{[2-(2-amino-5-chloro-1,3-thiazol-4-yl)-2-(hydroxyimino)acetyl]amino}-3-{(E)-2-[(6-amino-2-hydroxy-4-pyrimidinyl)sulfanyl]ethenyl}-8-oxo-5-thia-1-azabicyclo[4.2.0]oct-2-ene-2-carboxylic acid], the MIC in the assay with E. faecalis 2168 (setting [1]) is 0.5 µg/mL (≈ 0.876 µM); in the assay on S. aureus 77 (setting [2]), 0.25 µg/mL (≈ 0.438 µM); in the assay on S. aureus K311 (setting [3]), 0.5 µg/mL (≈ 0.876 µM); with S. aureus giorgio (setting [4]), 0.13 µg/mL (≈ 0.228 µM); with S. epidermidis Q033 (setting [5]) it was 0.063 µg/mL (≈ 0.11 µM).

Consider `NCCSc1nccc(S/C=C/C2=C(C(=O)O)N3C(=O)[C@@H](NC(=O)C(=NO)c4nc(N)sc4Cl)[C@H]3SC2)n1` [Compound I-4, (6R,7R)-7-{[2-(2-amino-5-chloro-1,3-thiazol-4-yl)-2-(hydroxyimino)acetyl]amino}-3-{(E)-2-({2-[(2-aminoethyl)sulfanyl]-4-pyrimidinyl}sulfanyl)ethenyl}-8-oxo-5-thia-1-azabicyclo[4.2.0]oct-2-ene-2-carboxylic acid], for which the MIC with E. faecalis 2168 (setting [1]) is 1 µg/mL (≈ 1.63 µM); with S. aureus 77 (setting [2]) it was 1 µg/mL (≈ 1.63 µM); in the assay with S. aureus K311 (setting [3]) it was 2 µg/mL (≈ 3.25 µM); in the assay on S. aureus giorgio (setting [4]), 0.25 µg/mL (≈ 0.406 µM); with S. epidermidis Q033 (setting [5]), 0.13 µg/mL (≈ 0.211 µM).

`CN[C@H](CC(C)C)C(=O)N[C@H]1C(=O)N[C@@H](CC(N)=O)C(=O)N[C@H]2C(=O)N[C@H]3C(=O)N[C@H](C(=O)N[C@H](C(=O)O)c4cc(O)cc(O)c4-c4cc3ccc4O)[C@H](O)c3ccc(c(Cl)c3)Oc3cc2cc(c3O[C@@H]2O[C@H](CO)[C@@H](O)[C@H](O)[C@H]2O[C@H]2C[C@](C)(N)[C@H](O)[C@H](C)O2)Oc2ccc(cc2Cl)[C@H]1O` [Vancomycin, reference compound]: the MIC with E. faecalis 2168 (Enterococcus faecalis, 2168, 20 h) is greater than 64 µg/mL; in the assay with S. aureus 77 (Staphylococcus aureus, 77, 20 h), 1 µg/mL (≈ 0.69 µM); in the assay on S. aureus K311 (K311, 20 h) it was 2 µg/mL (≈ 1.38 µM); in the assay on S. aureus giorgio (20 h), 1 µg/mL (≈ 0.69 µM); in the assay on S. epidermidis Q033 (Q033, 20 h), 1 µg/mL (≈ 0.69 µM).
